In patent US12168086B2, “Hemostatic devices and methods of use” (priority 2016, dated 2024):
Values belong to the compound of their own block, whether it stands above or below them.

Columns and labels:
[1] = tested on: myofibroblast formation; conditions: Ajmal et al. (2003); cited from earlier work
[2] = PBS pH 7.4 without TXA, with TXA 0.05 mg/mL or 5 mg/mL, over 25 hours
[3] = tested on: blood clotting; conditions: in vitro, 1.2 mg of TXA alone
[4] = time to reach plasma concentrations; conditions: in vivo

SMILES: O=S(=O)([O-])CCS.[Na+] [MESNA, sodium 2-mercaptoethane sulfonate]
- myofibroblast formation [1]: diminish myofibroblast formation

- elution rate from p22-27.5 polymer [2]: not affected by the presence of TXA
SMILES: CO[C@H]1/C=C/O[C@@]2(C)Oc3c(C)c(O)c4c(O)c(c(/C=N/N5CCN(C)CC5)c(O)c4c3C2=O)NC(=O)/C(C)=C\C=C\[C@H](C)[C@H](O)[C@@H](C)[C@@H](O)[C@@H](C)[C@H](OC(C)=O)[C@@H]1C [rifampin]

- time to reach plasma concentrations [4]: 5 to 15 min
SMILES: NC[C@H]1CC[C@H](C(=O)O)CC1 [tranexamic acid]
- time to induce blood clotting [3]: about 19 minutes
